Like-named read-outs stand apart in the source and are kept apart here.

Our source for the IC50 values is US20250163057A1, “DCN-1 MODULATING COMPOUNDS AND METHODS OF USE THEREOF” (Cellarity, Inc., priority 2023, published 2025).

In the assay the target is DCN1 (DCUND1) protein PONY domain (Homo sapiens (Human), UniProt Q96GG9). Briefly: TR-FRET assay, DCN1 binding with FAM-labeled probe. How it is done:
A TR-FRET assay was performed to evaluate the ability of the compounds to bind the DCN-1 protein.
The TR-FRET assay was designed following the Scott et al. protocol (Scott et al., Nat Chem Biol. 2017 August; 13(8): 850-857. Doi:10.1038/nchembio.2386). The recombinant form of the DCN1 (DCUND1) protein PONY domain was produced using an E. coli expression system at Viva Biotech (China). The DCN1 protein was biotinylated (EZ sulfo-NHS-LC-biotin; Thermofisher) for labeling with streptavidin terbium (Tb) cryptate in the reaction. The probe was changed to a non-covalent DCN1 inhibitor labeled with carboxyfluorescein (FAM; Zhou et al., Nat Commun. 2017; 8: 1150. Doi: 10.1038/s41467-017-01243-7). Buffer conditions were modified to enhance protein stability by exchanging Tween20 for TritonX and increasing NaCl to 200 mM. The compounds were screened against 5 nM DCN1 and 20 nM FAM-probe or 0.31 nM DCN1 and 900 nM total probe (100 nM FAM-labeled plus 800 nM unlabeled). The TR-FRET ratio between Tb-DCN1 and the FAM-labeled probe was measured in a 384-well opti-plate (Perkin Elmer) using a plate reader (BMG) at 1, 5, and 24 hrs after treatment with compound (final DMSO concentration of 0.1%).
(Time-resolved FRET reads energy transfer from a long-lived donor to a nearby acceptor.)

[1] abbreviates: 24 hr after treatment with compound, read-out: TR FRET IC50 24 hr.
The mark [2] stands for this setting: TR FRET IC50 1 hr (nM), 1 hr after treatment with compound.

Sequence of DCN1 (DCUND1) protein PONY domain (Q96GG9 60-248): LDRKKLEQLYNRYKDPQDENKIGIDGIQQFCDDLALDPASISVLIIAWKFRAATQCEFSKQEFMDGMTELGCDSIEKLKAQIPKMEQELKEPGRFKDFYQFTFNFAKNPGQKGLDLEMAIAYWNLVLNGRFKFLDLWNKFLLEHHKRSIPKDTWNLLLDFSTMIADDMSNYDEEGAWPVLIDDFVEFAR

On to `CCN1C(=O)[C@@H](NC(=O)c2cccc(C(F)(F)F)c2)[C@@H](c2ccc(F)cc2)c2c(CNC(=O)C3(C#N)COC3)nn(-c3ccccc3)c21` (racemic) [Compound I-100, rac-3-cyano-N-(((4R,5R)-7-ethyl-4-(4-fluorophenyl)-6-oxo-1-phenyl-5-(3-(trifluoromethyl)benzamido)-4,5,6,7-tetrahydro-1H-pyrazolo[3,4-b]pyridine-3-yl)methyl)oxetane-3-carboxamide], for which the IC50 (commonly the concentration that gives 50% inhibition) is, setting by setting: under setting [1], 200 to 1000 nM; under setting [2], 200 to 1000 nM.

With `C=C(Cc1nn(-c2ccccc2)c2c1[C@H](c1ccc(F)cc1)[C@H](NC(=O)c1cccc(C(F)(F)F)c1)C(=O)N2CC)C(=O)OC(C)(C)C` (racemic) [Compound I-78, rac-tert-butyl 2-(((4R,5R)-7-ethyl-4-(4-fluorophenyl)-6-oxo-1-phenyl-5-(3-(trifluoromethyl)benzamido)-4,5,6,7-tetrahydro-1H-pyrazolo[3,4-b]pyridin-3-yl)methyl)acrylate], the IC50 lay in the range of 1000 to 3000 nM under setting [1] and 1000 to 3000 nM under setting [2].

Regarding `CCN1C(=O)[C@@H](NC(=O)c2cccc(C(F)(F)F)c2)[C@@H](c2ccc(F)cc2)c2c(C/C=C/C(=O)N(C)C)nn(-c3ccccc3)c21` (racemic) [Compound I-41], the IC50 is, setting by setting: under setting [1], 1000 to 3000 nM; under setting [2], 1000 to 3000 nM.

In the case of `CCN1C(=O)[C@@H](NC(=O)c2ccc(C3CCN(C)CC3)cc2)[C@@H](C2CC2)c2c(C(=O)N3[C@H](C#N)C[C@H]4C[C@H]43)nn(C3CCOCC3)c21` [Compound I-653], the IC50 reads like this: under setting [1], 1000 to 3000 nM; under setting [2], 1000 to 3000 nM.

For `CCN1C(=O)[C@@H](NC(=O)Cc2ccc(C)cc2C)[C@@H](C2CC2)c2c(C(=O)N3[C@H](C#N)C[C@H]4C[C@H]43)nn(C3CCOCC3)c21` [Compound I-511], the half-inhibitory concentration (IC50) was 1000 to 3000 nM under setting [1] and 1000 to 3000 nM under setting [2].

With `CCN1C(=O)[C@@H](NC(=O)c2cccc(C(F)(F)F)c2)[C@@H](c2ccc(F)cc2)c2c(C/C=C/C(N)=O)nn(-c3ccccc3)c21` (racemic) [Compound I-46, rac-N-((4R,5R)-3-((E)-4-amino-4-oxobut-2-en-1-yl)-7-ethyl-4-(4-fluorophenyl)-6-oxo-1-phenyl-4,5,6,7-tetrahydro-1H-pyrazolo[3,4-b]pyridin-5-yl)-3-(trifluoromethyl)benzamide], the IC50 under setting [1] lay within 1000 to 3000 nM and the IC50 under setting [2] was in the range of 1000 to 3000 nM.

For the molecule `CCN1C(=O)[C@@H](NC(=O)c2cccc(C(F)(F)F)c2)[C@@H](c2ccc(F)cc2)c2c(C/C=C/C(=O)NCCO)nn(-c3ccccc3)c21` (racemic) [Compound I-36], the IC50 under setting [1] was 1000 to 3000 nM and the IC50 under setting [2] was 1000 to 3000 nM.

Turning to `CCN1C(=O)[C@@H](NC(=O)CCc2cnn(C)c2)[C@@H](C2CC2)c2c(C(=O)N3[C@H](C#N)C[C@H]4C[C@H]43)nn(C3CCOCC3)c21` [Compound I-433], the IC50 fell in the range of 1000 to 3000 nM under setting [1] and 1000 to 3000 nM under setting [2].

With `C=C(CC(=O)OC)C(=O)NCc1nn(-c2ccccc2)c2c1[C@H](c1ccc(F)cc1)[C@H](NC(=O)c1cccc(C(F)(F)F)c1)C(=O)N2CC` (racemic) [Compound I-17], the concentration for half-maximal inhibition (IC50) lay within 1000 to 3000 nM under setting [1] and 1000 to 3000 nM under setting [2].

As for `CCN1C(=O)[C@@H](NC(=O)c2cccc(C(F)(F)F)c2)[C@@H](c2ccc(F)cc2)c2c(/C=C3\CCC(=O)N3)nn(-c3ccccc3)c21` (racemic) [Compound I-39, rac-N-((4R,5R)-7-ethyl-4-(4-fluorophenyl)-6-oxo-3-((E)-(5-oxopyrrolidin-2-ylidene)methyl)-1-phenyl-4,5,6,7-tetrahydro-1H-pyrazolo[3,4-b]pyridin-5-yl)-3-(trifluoromethyl)benzamide], the IC50 runs as follows: under setting [1], 1000 to 3000 nM; under setting [2], 1000 to 3000 nM.

`CCN1C(=O)[C@@H](NC(=O)c2sc(NC(C)=O)nc2C)[C@@H](C2CC2)c2c(C(=O)N3[C@H](C#N)C[C@H]4C[C@H]43)nn(C3CCOCC3)c21` [Compound I-471]: the IC50 under setting [1] fell in the range of 1000 to 3000 nM and the IC50 under setting [2] was 1000 to 3000 nM.

Turning to `CCN1C(=O)[C@@H](NC(=O)c2cccc(C(F)(F)F)c2)[C@@H](c2ccc(F)cc2)c2c(C(=O)NCCC#N)nn(-c3ccccc3)c21` (racemic) [Compound I-81, rac-(4R,5R)—N-(2-cyanoethyl)-7-ethyl-4-(4-fluorophenyl)-6-oxo-1-phenyl-5-(3-(trifluoromethyl)benzamido)-4,5,6,7-tetrahydro-1H-pyrazolo[3,4-b]pyridine-3-carboxamide], the IC50 is, setting by setting: under setting [1], 1000 to 3000 nM; under setting [2], 1000 to 3000 nM.

In the case of `CCN1C(=O)[C@@H](NC(=O)c2cccc(C(F)(F)F)c2)[C@@H](c2ccc(F)cc2)c2c(CC/C=C/C(=O)O)nn(-c3ccccc3)c21` (racemic) [Compound I-134, rac-(E)-5-((4R,5R)-7-ethyl-4-(4-fluorophenyl)-6-oxo-1-phenyl-5-(3-(trifluoromethyl)benzamido)-4,5,6,7-tetrahydro-1H-pyrazolo[3,4-b]pyridin-3-yl)pent-2-enoic acid], the IC50 was 200 to 1000 nM under setting [1] and 200 to 1000 nM under setting [2].

Consider `CCN1C(=O)[C@@H](NC(=O)C2CCC(F)(F)CC2)[C@@H](C2CC2)c2c(C(=O)N3[C@H](C#N)C[C@H]4C[C@H]43)nn(C3CCOCC3)c21` [Compound I-652], for which the IC50 lay in the range of 1000 to 3000 nM under setting [1] and 1000 to 3000 nM under setting [2].

Consider `CCN1C(=O)[C@@H](NC(=O)C23CC(C(F)(F)F)(C2)C3)[C@@H](C2CC2)c2c(C(=O)N3[C@H](C#N)C[C@H]4C[C@H]43)nn(C3CCOCC3)c21` [Compound I-701], for which the IC50 lay within 1000 to 3000 nM under setting [1] and 1000 to 3000 nM under setting [2].

As to `CCN1C(=O)[C@@H](NC(=O)c2cccc(C(F)(F)F)c2)[C@@H](c2ccc(F)cc2)c2c(C3(N(C)C#N)CC3)nn(-c3ccccc3)c21` (racemic) [Compound I-52], the IC50 is, setting by setting: under setting [1], 1000 to 3000 nM; under setting [2], 1000 to 3000 nM.

Take `CCN1C(=O)[C@@H](NC(=O)c2cccc(C(F)(F)F)c2)[C@@H](c2ccc(F)cc2)c2c(CC/C=C\C(=O)NC)nn(-c3ccccc3)c21` (racemic) [Compound I-43]: the IC50 was 1000 to 3000 nM under setting [1] and 200 to 1000 nM under setting [2].

In the case of `CCN1C(=O)[C@@H](NC(=O)CS(C)(=O)=O)[C@@H](C2CC2)c2c(C(=O)N3[C@H](C#N)C[C@H]4C[C@H]43)nn(C3CCOCC3)c21` [Compound I-546], the IC50 under setting [1] was 1000 to 3000 nM and the half-maximal inhibitory concentration (IC50) under setting [2] is 1000 to 3000 nM.

`CCN1C(=O)[C@@H](NC(=O)CC2CC(=O)c3ccc(OC)cc32)[C@@H](C2CC2)c2c(C(=O)N3[C@H](C#N)C[C@H]4C[C@H]43)nn(C3CCOCC3)c21` (some centres unmarked) [Compound I-618]: the IC50 fell in the range of 1000 to 3000 nM under setting [1] and 1000 to 3000 nM under setting [2].

With `CCN1C(=O)[C@@H](NC(=O)c2cccc(C(F)(F)F)c2)[C@@H](c2ccc(F)cc2)c2c(NC(=O)C(F)Cl)nn(-c3ccccc3)c21` (mixture of isomers) [Compound I-120], the IC50 under setting [1] lay within 200 to 1000 nM and the IC50 under setting [2] was 200 to 1000 nM.

As for `CCN1C(=O)[C@@H](NC(=O)c2cccc(C(F)(F)F)c2)[C@@H](c2ccc(F)cc2)c2c(/C=C3/CCC(=O)N3)nn(-c3ccccc3)c21` (racemic) [Compound I-70, rac-N-((4R,5R)-7-ethyl-4-(4-fluorophenyl)-6-oxo-3-((Z)-(5-oxopyrrolidin-2-ylidene)methyl)-1-phenyl-4,5,6,7-tetrahydro-1H-pyrazolo[3,4-b]pyridin-5-yl)-3-(trifluoromethyl)benzamide], the IC50 under setting [1] fell in the range of 1000 to 3000 nM and the IC50 under setting [2] was in the range of 1000 to 3000 nM.

On to `CCN1C(=O)[C@H](NC(=O)c2cccc(C(F)(F)F)c2)[C@@H](c2ccc(F)cc2)c2c(CN(C)C#N)nn(-c3ccccc3)c21` (single isomer, unassigned) [Compound I-82], for which the IC50 by setting is: under setting [1], 1000 to 3000 nM; under setting [2], 1000 to 3000 nM.

On to `CCN1C(=O)[C@@H](NC(=O)C2(c3ccccc3)CC2)[C@@H](C2CC2)c2c(C(=O)N3[C@H](C#N)C[C@H]4C[C@H]43)nn(C3CCOCC3)c21` [Compound I-419], for which the IC50 is 1000 to 3000 nM under setting [1] and 1000 to 3000 nM under setting [2].

On to `CCN1C(=O)[C@@H](NC(=O)C2CC2C(F)(F)F)[C@@H](C2CC2)c2c(C(=O)N3[C@H](C#N)C[C@H]4C[C@H]43)nn(C3CCOCC3)c21` (some centres unmarked) [Compound I-523], for which the IC50 is, setting by setting: under setting [1], 1000 to 3000 nM; under setting [2], 1000 to 3000 nM.

Turning to `CCN1C(=O)[C@@H](NC(=O)C2CC(=O)N(Cc3ccccc3)C2)[C@@H](C2CC2)c2c(C(=O)N3[C@H](C#N)C[C@H]4C[C@H]43)nn(C3CCOCC3)c21` (some centres unmarked) [Compound I-435], the IC50 under setting [1] was 1000 to 3000 nM and the IC50 under setting [2] was 1000 to 3000 nM.

For the molecule `CCN1C(=O)[C@@H](NC(=O)c2cccc(C(F)(F)F)c2C)[C@@H](C2CC2)c2c(C(=O)N3[C@H](C#N)C[C@H]4C[C@H]43)nn(C3CCOCC3)c21` [Compound I-468], the IC50 reads like this: under setting [1], not above 200 nM; (read-out: TR FRET IC50 1 hr, 1 hr after treatment with compound) not above 200 nM.

For the molecule `CCN1C(=O)[C@@H](NC(=O)c2cccc(C(F)(F)F)c2)[C@H](c2ccc(F)cc2)c2c(CNC(=O)C3=C(C(=O)OC)CCC3)nn(-c3ccccc3)c21` (racemic) [Compound I-71], the IC50 was 200 to 1000 nM under setting [1] and 200 to 1000 nM under setting [2].

In the case of `CCN1C(=O)[C@@H](NC(=O)c2cccc(C(F)(F)F)c2)[C@@H](c2ccc(F)cc2)c2c(CNC(=O)C3=CCCN(C)C3)nn(-c3ccccc3)c21` (racemic) [Compound I-28], the IC50 was not above 200 nM under setting [1] and 200 to 1000 nM under setting [2].
